Among the data in ChEMBL document CHEMBL4177674, “Cyclotides, a versatile ultrastable micro-protein scaffold for biotechnological applications” (Bioorg Med Chem Lett, 2017) are Ki values, retold here.

Bridge positions count the residues as written; N and C are the ends. Peptide text beside a SMILES is read from it.

For the test, the target named is T1, Serine protease 1 (Bos taurus, UniProt P00760).
T1 sequence (P00760 whole entry): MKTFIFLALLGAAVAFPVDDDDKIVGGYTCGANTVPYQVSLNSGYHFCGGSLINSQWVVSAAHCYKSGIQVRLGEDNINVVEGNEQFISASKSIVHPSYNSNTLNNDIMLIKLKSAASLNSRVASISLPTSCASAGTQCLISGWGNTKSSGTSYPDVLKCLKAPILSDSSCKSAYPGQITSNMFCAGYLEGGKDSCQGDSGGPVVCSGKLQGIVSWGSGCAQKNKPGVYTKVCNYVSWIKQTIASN
Put plainly: Inhibition of bovine beta-trypsin incubated for 5 mins using BAPNA as substrate by colorimetric assay.
A word on the Ki: it is a dissociation constant, usually derived from enzyme kinetics or from competition with a known ligand. Regarding `CCC(C)[C@@H]1NC(=O)CNC(=O)[C@H](CC(N)=O)NC(=O)[C@H](Cc2ccc(O)cc2)NC(=O)[C@@H]2CSSC[C@@H]3NC(=O)[C@@H]4CCCN4C(=O)[C@H](C(C)CC)NC(=O)[C@H](Cc4ccc(O)cc4)NC(=O)[C@H](C(C)C)NC(=O)[C@@H]4CSSC[C@H](NC(=O)[C@H](CO)NC(=O)[C@H](CSSC[C@H](NC(=O)[C@@H]5CCCN5C1=O)C(=O)N[C@@H](C)C(=O)N[C@@H](CCC(=O)O)C(=O)N[C@@H](CO)C(=O)N4)NC(=O)CNC(=O)[C@H](CC(C)C)NC(=O)[C@H](CC(C)C)NC(=O)[C@H](C)NC(=O)[C@H]([C@@H](C)O)NC(=O)[C@H](C(C)C)NC(=O)[C@H]([C@@H](C)O)NC3=O)C(=O)N[C@@H](CO)C(=O)N[C@@H](CC(N)=O)C(=O)N[C@@H](CCCNC(=N)N)C(=O)N[C@@H](C(C)C)C(=O)N2` (stereo partly drawn), the Ki was 20 to 30 pM.

Turning to `CC[C@H](C)[C@@H]1NC(=O)[C@H](C)NC(=O)[C@H](CO)NC(=O)[C@H](CO)NC(=O)[C@H]([C@@H](C)CC)NC(=O)[C@@H]2CSSC[C@@H]3NC(=O)[C@H](C(C)C)NC(=O)[C@H](CCCCN)NC(=O)[C@H](CO)NC(=O)[C@H](CCCCN)NC(=O)[C@@H]4CSSC[C@H](NC(=O)[C@H](CO)NC(=O)[C@H](CCC(=O)O)NC(=O)CNC(=O)[C@H](CSSC[C@H](NC(=O)CNC1=O)C(=O)N[C@@H](CO)C(=O)N4)NC(=O)[C@@H]1CCCN1C(=O)[C@H]([C@@H](C)CC)NC(=O)CNC(=O)[C@H](CC(N)=O)NC(=O)[C@H](CCCNC(=N)N)NC(=O)[C@H](Cc1ccc(O)cc1)NC3=O)C(=O)N[C@@H](C(C)C)C(=O)N[C@@H](Cc1c[nH]c3ccccc13)C(=O)N[C@@H]([C@@H](C)CC)C(=O)N1CCC[C@H]1C(=O)N2` (cyclo(AIGCSCKSKVCYRNGIPCGESCVWIPCISS); disulfide 4-18, 6-22, 11-27), the Ki was in the range of 20 to 30 pM.

On to `CC[C@H](C)[C@@H]1NC(=O)[C@@H]2CCCN2C(=O)[C@H](Cc2c[nH]c3ccccc23)NC(=O)[C@H]([C@@H](C)O)NC(=O)[C@@H]2CSSC[C@@H]3NC(=O)[C@H]([C@@H](C)O)NC(=O)[C@H](CCC(=O)O)NC(=O)CNC(=O)[C@@H]4CSSC[C@H](NC(=O)CNC(=O)[C@@H]5CCCN5C(=O)[C@H]([C@@H](C)O)NC(=O)[C@H](CC(N)=O)NC(=O)[C@H](CSSC[C@H](NC1=O)C(=O)N[C@@H]([C@@H](C)O)C(=O)N[C@@H](CCCNC(=N)N)C(=O)N[C@@H](CC(=O)O)C(=O)NCC(=O)N[C@@H](CC(C)C)C(=O)N1CCC[C@H]1C(=O)N[C@@H](C(C)C)C(=O)N4)NC(=O)[C@H]([C@@H](C)O)NC(=O)CNC(=O)CNC(=O)[C@H](Cc1ccccc1)NC3=O)C(=O)N[C@@H](CO)C(=O)N2` (cyclo(CFGGTCNTPGCSCTWPICTRDGLPVCGET); disulfide 1-13, 6-18, 11-26), for which the Ki was 20 to 30 pM.
